Source: the supplement of paper PMC10307832

Experiments:
Assay in all cases: relative viability (nuclei count vs DMSO), 5 days (fraction); higher = more cells survive
ABC-1 = test system: ABC-1
Outline: (§1)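 Cells from lung cancer lines were seeded into 1536-well plates and, one day later, dosed by pin tool. Treatments were either a single drug or a fixed dose of an anchor drug with five library-drug doses (not always all listed) in √10 steps. After 5 days, nuclei were stained in a one-step fixation (final 0.05% Triton X-100, 1% formaldehyde, 1 ug/ml Hoechst) and counted on 4× images, and relative viability is the treated-to-vehicle nuclei ratio, as the median of duplicate plates.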

CAL-12T = test system: CAL-12T
Outline: as §1

COR-L 105 = test system: COR-L 105
Outline: as §1

EMC-BAC-2 = test system: EMC-BAC-2
Outline: as §1

EPLC-272H = test system: EPLC-272H
Outline: as §1

HCC-15 = test system: HCC-15
Outline: as §1

HCC-78 = test system: HCC-78
Outline: as §1

HOP-62 = test system: HOP-62
Outline: as §1

LXF-289 = test system: LXF-289
Outline: as §1

NCI-H1666 = test system: NCI-H1666
Outline: as §1

NCI-H1755 = test system: NCI-H1755
Outline: as §1

NCI-H1915 = test system: NCI-H1915
Outline: as §1

NCI-H1975 = test system: NCI-H1975
Outline: as §1

NCI-H1993 = test system: NCI-H1993
Outline: as §1

NCI-H2023 = test system: NCI-H2023
Outline: as §1

NCI-H2085 = test system: NCI-H2085
Outline: as §1

NCI-H2126 = test system: NCI-H2126
Outline: as §1

NCI-H3122 = test system: NCI-H3122
Outline: as §1

NCI-H322M = test system: NCI-H322M
Outline: as §1

NCI-H358 = test system: NCI-H358
Outline: as §1

UMC-11 = test system: UMC-11
Outline: as §1

`C[C@@H]1CN(CC(=O)Nc2ccc3c(c2)Cc2cccc(-c4cc(=O)cc(N5CCOCC5)o4)c2S3)C[C@H](C)O1` + CS(=O)(=O)CCNCc1ccc(-c2ccc3ncnc(Nc4ccc(OCc5cccc(F)c5)c(Cl)c4)c3c2)o1 [Lapatinib] (partner 2 µM) was tested, and the relative viability (ABC-1; first compound 0.04 µM) was 0.964, the relative viability (ABC-1; first compound 0.1265 µM) was 1.06 and the relative viability (ABC-1; first compound 0.4 µM) was 1.22. The relative viability (ABC-1; first compound 4 µM) was 1.21, the relative viability (CAL-12T; first compound 0.04 µM) was 0.28 and the relative viability (CAL-12T; first compound 0.1265 µM) was 0.69. For the same molecule, the relative viability (CAL-12T; first compound 0.4 µM) was 0.667, the relative viability (CAL-12T; first compound 4 µM) was 0.636 and the relative viability (COR-L 105; first compound 0.04 µM) was 0.28. For the same molecule, the relative viability (COR-L 105; first compound 0.1265 µM) was 0.302, the relative viability (COR-L 105; first compound 0.4 µM) was 0.381 and the relative viability (COR-L 105; first compound 4 µM) was 0.359. It also gave a relative viability (EMC-BAC-2; first compound 0.04 µM) of 0.903, a relative viability (EMC-BAC-2; first compound 0.1265 µM) of 0.934 and a relative viability (EMC-BAC-2; first compound 0.4 µM) of 0.775. For the same molecule, the relative viability (EMC-BAC-2; first compound 4 µM) was 0.827, the relative viability (EPLC-272H; first compound 0.04 µM) was 0.837 and the relative viability (EPLC-272H; first compound 0.1265 µM) was 1. For the same molecule, the relative viability (EPLC-272H; first compound 0.4 µM) was 1.01, the relative viability (EPLC-272H; first compound 4 µM) was 0.783 and the relative viability (HCC-15; first compound 0.04 µM) was 0.866. It also gave a relative viability (HCC-15; first compound 0.1265 µM) of 0.736, a relative viability (HCC-15; first compound 0.4 µM) of 0.929 and a relative viability (HCC-15; first compound 4 µM) of 0.763. The relative viability (HCC-78; first compound 0.04 µM) was 0.64, the relative viability (HCC-78; first compound 0.1265 µM) was 0.705 and the relative viability (HCC-78; first compound 0.4 µM) was 0.702. The relative viability (HCC-78; first compound 4 µM) was 0.703, the relative viability (HOP-62; first compound 0.04 µM) was 0.549 and the relative viability (HOP-62; first compound 0.1265 µM) was 1.01. For the same molecule, the relative viability (HOP-62; first compound 0.4 µM) was 1.19, the relative viability (HOP-62; first compound 4 µM) was 0.953 and the relative viability (LXF-289; first compound 0.04 µM) was 0.879. The relative viability (LXF-289; first compound 0.1265 µM) was 0.962, the relative viability (LXF-289; first compound 0.4 µM) was 0.904 and the relative viability (LXF-289; first compound 4 µM) was 0.835. For the same molecule, the relative viability (NCI-H1666; first compound 0.04 µM) was 0.745, the relative viability (NCI-H1666; first compound 0.1265 µM) was 0.667 and the relative viability (NCI-H1666; first compound 0.4 µM) was 0.665. It also gave a relative viability (NCI-H1666; first compound 4 µM) of 0.579, a relative viability (NCI-H1755; first compound 0.04 µM) of 1.1 and a relative viability (NCI-H1755; first compound 0.1265 µM) of 0.995. It also gave a relative viability (NCI-H1755; first compound 0.4 µM) of 1, a relative viability (NCI-H1755; first compound 4 µM) of 0.932 and a relative viability (NCI-H1915; first compound 0.04 µM) of 0.872. For the same molecule, the relative viability (NCI-H1915; first compound 0.1265 µM) was 0.956, the relative viability (NCI-H1915; first compound 0.4 µM) was 1.06 and the relative viability (NCI-H1915; first compound 4 µM) was 0.785. The relative viability (NCI-H1975; first compound 0.04 µM) was 0.871, the relative viability (NCI-H1975; first compound 0.1265 µM) was 0.803 and the relative viability (NCI-H1975; first compound 0.4 µM) was 0.912. The relative viability (NCI-H1975; first compound 4 µM) was 0.754, the relative viability (NCI-H1993; first compound 0.04 µM) was 0.862 and the relative viability (NCI-H1993; first compound 0.1265 µM) was 0.86. For the same molecule, the relative viability (NCI-H1993; first compound 0.4 µM) was 0.812, the relative viability (NCI-H1993; first compound 4 µM) was 0.833 and the relative viability (NCI-H2023; first compound 0.04 µM) was 0.176. For the same molecule, the relative viability (NCI-H2023; first compound 0.1265 µM) was 0.793, the relative viability (NCI-H2023; first compound 0.4 µM) was 0.536 and the relative viability (NCI-H2023; first compound 4 µM) was 0.719. The relative viability (NCI-H2085; first compound 0.04 µM) was 0.402, the relative viability (NCI-H2085; first compound 0.1265 µM) was 0.742 and the relative viability (NCI-H2085; first compound 0.4 µM) was 0.624. For the same molecule, the relative viability (NCI-H2085; first compound 4 µM) was 0.58, the relative viability (NCI-H2126; first compound 0.04 µM) was 0.762 and the relative viability (NCI-H2126; first compound 0.1265 µM) was 0.757. For the same molecule, the relative viability (NCI-H2126; first compound 0.4 µM) was 0.764, the relative viability (NCI-H2126; first compound 4 µM) was 0.763 and the relative viability (NCI-H3122; first compound 0.04 µM) was 1.05. For the same molecule, the relative viability (NCI-H3122; first compound 0.1265 µM) was 1.01, the relative viability (NCI-H3122; first compound 0.4 µM) was 1.07 and the relative viability (NCI-H3122; first compound 4 µM) was 0.988. The relative viability (NCI-H322M; first compound 0.04 µM) was 0.39, the relative viability (NCI-H322M; first compound 0.1265 µM) was 0.587 and the relative viability (NCI-H322M; first compound 0.4 µM) was 0.626. For the same molecule, the relative viability (NCI-H322M; first compound 4 µM) was 0.535, the relative viability (NCI-H358; first compound 0.04 µM) was 0.356 and the relative viability (NCI-H358; first compound 0.1265 µM) was 0.427. The relative viability (NCI-H358; first compound 0.4 µM) was 0.39, the relative viability (NCI-H358; first compound 4 µM) was 0.417 and the relative viability (UMC-11; first compound 0.04 µM) was 0.984. It also gave a relative viability (UMC-11; first compound 0.1265 µM) of 0.927, a relative viability (UMC-11; first compound 0.4 µM) of 1.1 and a relative viability (UMC-11; first compound 4 µM) of 0.694.
